# US20150246902A1, “SUBSTITUED BENZOFURAN COMPOUNDS AND METHODS OF USE THEREOF FOR THE TREATMENT OF VIRAL DISEASES” (priority 2011, published 2015)
# Columns and labels:
# [1] = tested on: HCV replicon genotype 1a; experiment: microbe, parasite or virus in culture; format: cell-based; conditions: Hepatitis C virus, 96 h, HCV genotype 1a replicon cells, 96 hours incubation, NS3/4A ELISA readout
# [2] = tested on: HCV replicon genotype 1b; experiment: microbe, parasite or virus in culture; format: cell-based; conditions: Hepatitis C virus, 96 h, HCV genotype 1b replicon cells, 96 hours incubation, NS3/4A ELISA readout
SMILES,IC50 [1] [nM],IC50 [2] [nM]
"CNC(=O)c1c(-c2ccc(F)cc2)oc2cc(N(C)S(C)(=O)=O)c(-c3ncc4ncn(-c5ccc(OC(F)(F)F)cc5)c4n3)cc12 [Compound 39, 2-(4-fluorophenyl)-N-methyl-6-(N-methylmethylsulfonamido)-5-(9-(4-(trifluoromethoxy)phenyl)-9H-purin-2-yl)benzofuran-3-carboxamide]",1820,82.4
CNC(=O)c1c(-c2ccc(F)cc2)oc2cc(N(C)S(C)(=O)=O)c(-c3ncc4ncn(-c5ccc(F)cc5)c4n3)cc12 [Compound 40],338,20.2
CNC(=O)c1c(-c2ccc(F)cc2)oc2cc(N(C)S(C)(=O)=O)c(-c3ncc4ncn(-c5ccc(C(F)(F)F)cc5)c4n3)cc12 [Compound 41],119,6.7
CNC(=O)c1c(-c2ccc(F)cc2)oc2cc(N(C)S(C)(=O)=O)c(-c3ncc4ncn(-c5ccc(C#N)cc5)c4n3)cc12 [Compound 42],1520,299
CNC(=O)c1c(-c2ccc(F)cc2)oc2cc(N(C)S(C)(=O)=O)c(-c3ccc4ncn(-c5cc(F)cc(F)c5)c4n3)cc12 [Compound 43],158,17.3
CNC(=O)c1c(-c2ccc(F)cc2)oc2cc(N(C)S(C)(=O)=O)c(-c3ccc4ncn(-c5ccc(F)cc5)c4n3)cc12 [Compound 44],56.5,7.7
CNC(=O)c1c(-c2ccc(F)cc2)oc2cc(N(C)S(C)(=O)=O)c(-c3cc4c(cn3)ncn4-c3cc(F)cc(F)c3)cc12 [Compound 45],94.8,14.4
CNC(=O)c1c(-c2ccc(F)cc2)oc2cc(N(C)S(C)(=O)=O)c(-c3cc4c(cn3)ncn4-c3ccc(F)cc3)cc12 [Compound 46],74.5,10.7
"CNC(=O)c1c(-c2ccc(F)cc2)oc2cc(N(C)S(C)(=O)=O)c(-c3cnc4ccn(-c5ccc(F)cc5)c4c3)cc12 [Compound 47, 2-(4-fluorophenyl)-5-(1-(4-fluorophenyl)-1H-pyrrolo[3,2-b]pyridin-6-yl)-N-methyl-6-(N-methylmethylsulfonamido)benzofuran-3-carboxamide]",2.1,1.5
CNC(=O)c1c(-c2ccc(F)cc2)oc2cc(N(C)S(C)(=O)=O)c(-c3cnc4ccn(-c5ccc(C(F)(F)F)cc5)c4c3)cc12 [Compound 48],2.6,3.3
CNC(=O)c1c(-c2ccc(F)cc2)oc2cc(N(C)S(C)(=O)=O)c(-c3cnc4ccn(-c5ccc(C#N)cc5)c4c3)cc12 [Compound 49],8.3,3.3
CNC(=O)c1c(-c2ccc(F)cc2)oc2cc(N(C)S(C)(=O)=O)c(-c3cnc4ccn(-c5ccc(Cl)cc5)c4c3)cc12 [Compound 50],3.2,4.1
CNC(=O)c1c(-c2ccc(F)cc2)oc2cc(N(C)S(C)(=O)=O)c(-c3ccc4ccn(-c5ccncc5)c4c3)cc12 [Compound 51],34.6,7.8
CNC(=O)c1c(-c2ccc(F)cc2)oc2cc(N(C)S(C)(=O)=O)c(-c3ccc4ccn(-c5cccnc5)c4c3)cc12 [Compound 52],42.9,7.1
CNC(=O)c1c(-c2ccc(F)cc2)oc2cc(N(C)S(C)(=O)=O)c(-c3ccc4c(ccn4-c4ccccc4)c3)cc12 [Compound 53],82,12.5
CNC(=O)c1c(-c2ccc(F)cc2)oc2cc(N(C)S(C)(=O)=O)c(-c3ccc4c(ccn4-c4ccc(F)cc4)c3)cc12 [Compound 54],109,14.1
CNC(=O)c1c(-c2ccc(F)cc2)oc2cc(N(C)S(C)(=O)=O)c(-c3ccc4c(ccn4-c4cccc(F)c4)c3)cc12 [Compound 55],152,23.8
CNC(=O)c1c(-c2ccc(F)cc2)oc2cc(N(C)S(C)(=O)=O)c(-c3ccc4c(ccn4-c4ccc(C(F)(F)F)cc4)c3)cc12 [Compound 56],224,30.8
CNC(=O)c1c(-c2ccc(F)cc2)oc2cc(N(C)S(C)(=O)=O)c(-c3ccc4c(ccn4-c4cccnc4)c3)cc12 [Compound 57],13.9,3
CNC(=O)c1c(-c2ccc(F)cc2)oc2cc(N(C)S(C)(=O)=O)c(-c3ccc4c(ccn4-c4ccncc4)c3)cc12 [Compound 58],7.2,2.6
CNC(=O)c1c(-c2ccc(F)cc2)oc2cc(N(C)S(C)(=O)=O)c(-c3ccc4ccn(-c5ccc(F)cc5)c4c3)cc12 [Compound 59],15.3,5.2
CNC(=O)c1c(-c2ccc(F)cc2)oc2cc(N(C)S(C)(=O)=O)c(-c3ccc4ccn(-c5cccc(F)c5)c4c3)cc12 [Compound 60],45.4,4.4

SMILES,IC50 [1] [nM],IC50 [2] [nM]
CNC(=O)c1c(-c2ccc(F)cc2)oc2cc(N(C)S(C)(=O)=O)c(-c3ccc4ccn(-c5ccc(C(F)(F)F)cc5)c4c3)cc12 [Compound 61],34.2,10.1
CNC(=O)c1c(-c2ccc(F)cc2)oc2cc(N(C)S(C)(=O)=O)c(-c3ccc4[nH]ccc4c3)cc12 [Compound 62],183,22.9
CNC(=O)c1c(-c2ccc(F)cc2)oc2cc(N(C)S(C)(=O)=O)c(-c3ccc4ccn(-c5ccccc5)c4c3)cc12 [Compound 63],23.5,7.2
CNC(=O)c1c(-c2ccc(F)cc2)oc2cc(N(C)S(C)(=O)=O)c(-c3ccc4ccn(-c5ccc(F)cc5)c4n3)cc12 [Compound 64],409,76.1
CNC(=O)c1c(-c2ccc(F)cc2)oc2cc(N(C)S(C)(=O)=O)c(-c3ccc4ccn(-c5cc(F)cc(F)c5)c4n3)cc12 [Compound 65],1520,115
CNC(=O)c1c(-c2ccc(F)cc2)oc2cc(N(C)S(C)(=O)=O)c(-c3ccc4ccn(-c5ccc(F)cc5F)c4n3)cc12 [Compound 66],2270,225
"CNC(=O)c1c(-c2ccc(F)cc2)oc2cc(N(C)S(C)(=O)=O)c(-c3ccc4ccn(Cc5ccc(C(F)(F)F)cc5)c4c3)cc12 [Compound 67, 2-(4-fluorophenyl)-N-methyl-6-(N-methylmethylsulfonamido)-5-(1-(4-(trifluoromethyl)benzyl)-1H-indol-6-yl)benzofuran-3-carboxamide]",132,49.8
CNC(=O)c1c(-c2ccc(F)cc2)oc2cc(N(C)S(C)(=O)=O)c(-c3ccc4ccn(Cc5ccc(F)cc5)c4c3)cc12 [Compound 68],54.2,18.6
CNC(=O)c1c(-c2ccc(F)cc2)oc2cc(N(C)S(C)(=O)=O)c(-c3ccc4ccn(CCO)c4c3)cc12 [Compound 69],147,17.4
"CNC(=O)c1c(-c2ccc(F)cc2)oc2cc(N(C)S(C)(=O)=O)c(-c3ccc4[nH]cc(-c5ccccc5)c4c3)cc12 [Compound 70, 2-(4-fluorophenyl)-N-methyl-6-(N-methylmethylsulfonamido)-5-(3-phenyl-1H-indol-5-yl)benzofuran-3-carboxamide]",17.8,11.3
CNC(=O)c1c(-c2ccc(F)cc2)oc2cc(N(C)S(C)(=O)=O)c(-c3ccc4[nH]cc(-c5ccncc5)c4c3)cc12 [Compound 71],21.5,4.5
"CNC(=O)c1c(-c2ccc(F)cc2)oc2cc(N(C)S(C)(=O)=O)c(-c3ccc4[nH]nc(-c5ccc(F)cc5)c4c3)cc12 [Compound 73, 2-(4-fluorophenyl)-5-(3-(4-fluorophenyl)-1H-indazol-5-yl)-N-methyl-6-(N-methylmethylsulfonamido)benzofuran-3-carboxamide]",3.9,3.8
CNC(=O)c1c(-c2ccc(F)cc2)oc2cc(N(C)S(C)(=O)=O)c(-c3ccc4[nH]nc(-c5ccncc5)c4c3)cc12 [Compound 74],20.6,5.4
CNC(=O)c1c(-c2ccc(F)cc2)oc2cc(N(C)S(C)(=O)=O)c(-c3ccc4[nH]nc(-c5ccc(C(F)(F)F)cc5)c4c3)cc12 [Compound 75],8,7.3
CNC(=O)c1c(-c2ccc(F)cc2)oc2cc(N(C)S(C)(=O)=O)c(-c3ccc4[nH]nc(-c5ccc(Cl)cc5)c4c3)cc12 [Compound 76],6.8,5.8
"CNC(=O)c1c(-c2ccc(F)cc2)oc2cc(N3CCCC3=O)c(-c3ccc4ncn(-c5ccccc5)c4c3)cc12 [Compound 77, 2-(4-fluorophenyl)-N-methyl-6-(2-oxopyrrolidin-1-yl)-5-(1-phenyl-1H-benzo[d]imidazol-6-yl)benzofuran-3-carboxamide]",235,32.6
"CNC(=O)c1c(-c2ccc(F)cc2)oc2cc(N(C)S(C)(=O)=O)c(-c3cc(OC)c4nc(N)n(-c5cc(F)cc(F)c5)c4c3)cc12 [Compound 78, 5-(2-amino-1-(3,5-difluorophenyl)-4-methoxy-1H-benzo[d]imidazol-6-yl)-2-(4-fluorophenyl)-N-methyl-6-(N-methylmethylsulfonamido)benzofuran-3-carboxamide]",19,5.3
CNC(=O)c1c(-c2ccc(F)cc2)oc2cc(N(C)S(C)(=O)=O)c(-c3cc(F)c4nc(N)n(-c5cc(F)cc(F)c5)c4c3)cc12 [Compound 79],31.4,3.1
"CNC(=O)c1c(-c2ccc(F)cc2)oc2cc(N(C)S(C)(=O)=O)c(-c3cc(OC)c4[nH]c(=O)n(-c5cc(F)cc(F)c5)c4c3)cc12 [Compound 80, 5-(3-(3,5-difluorophenyl)-7-methoxy-2-oxo-2,3-dihydro-1H-benzo[d]imidazol-5-yl)-2-(4-fluorophenyl)-N-methyl-6-(N-methylmethylsulfonamido)benzofuran-3-carboxamide]",9,6.6
CNC(=O)c1c(-c2ccc(F)cc2)oc2cc(N(C)S(C)(=O)=O)c(-c3cc(F)c4[nH]c(=O)n(-c5cc(F)cc(F)c5)c4c3)cc12 [Compound 81],30.3,5.2
CNC(=O)c1c(-c2ccc(F)cc2)oc2cc(N(C)S(C)(=O)=O)c(-c3ccc4[nH]c(=O)n(-c5ccc(F)cc5)c4c3)cc12 [Compound 82],23,4.9
